Test results as given in publication PMC2610677 (Chemistry & biology, 2008).

Target: trORAS (truncated ORAS) (Neurospora crassa, UniProt Q7S6N4)
Test: HPLC of CoASH release, initial velocities, Michaelis-Menten fit
Format: biochemical
Conditions: malonyl-CoA (100 mM [sic]) as extender; 50 mM Tris-HCl pH 7.0; 30 °C

In the case of `CCCCCCCCCCCCCCCCCC(=O)SCCNC(=O)CCNC(=O)[C@H](O)C(C)(C)COP(=O)(O)OP(=O)(O)OC[C@H]1O[C@@H](n2cnc3c(N)ncnc32)[C@H](O)[C@@H]1OP(=O)(O)O` [7a, stearoyl-CoA], the Km was 3.5 µM.
